In the first test the target is T1, 14-3-3ζ (Homo sapiens, UniProt P63104).
T1 construct: made in house
T1 sequence (P63104 1-245): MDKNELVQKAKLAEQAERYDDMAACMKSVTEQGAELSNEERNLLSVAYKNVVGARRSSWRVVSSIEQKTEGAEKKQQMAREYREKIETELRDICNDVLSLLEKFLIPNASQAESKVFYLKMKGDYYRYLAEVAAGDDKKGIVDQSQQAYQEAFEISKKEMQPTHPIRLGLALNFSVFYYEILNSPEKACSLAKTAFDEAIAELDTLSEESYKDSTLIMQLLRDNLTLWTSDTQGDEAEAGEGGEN
The experiment in a line: 14-3-3 phosphorylation by PKA catalytic subunit (autoradiography). The class given is biochemical. The note with it: TMA compounds at 125 μM or 62.5 μM in 0.1% ethanol; P81 scintillation counting or autoradiography.
`CCCCCCCCCCCCCC[N+](C)(C)C` [C14]: the “14-3-3 phosphorylation by PKA catalytic subunit” value is “capable of facilitating 14-3-3 phosphorylation”.

On to `CCCCCCCCCCCCCCCC[N+](C)(C)C.[Br-]` [C16, hexadecyl-trimethyl ammonium], for which the “14-3-3 phosphorylation by PKA catalytic subunit” value was “capable of facilitating 14-3-3 phosphorylation”.

The target of another test is T1, 14-3-3ζ. The test is described as above. The test is classed as biochemical. The note with it: 50 μM lipid delivered in 0.1% ethanol. The method, then:
14-3-3ζ (wild-type or S58A mutant) was incubated with the catalytic subunit of PKA in the presence (+) or absence (−) of 50 μM sphingosine (A) or DMS (B) delivered in 0.1% ethanol. Phosphorylated 14-3-3ζ was detected by autoradiography.
The assay was carried out by incubating 14-3-g (0.5 μg) with catalytic subunit of PKA (0.2 Units) with the indicated concentration of DMS delivered in 0.1% ethanol. Reactions were separated on SDS-PAGE and phosphorylated protein detected by autoradiography. […] (B) 14-3-3ζ was incubated with the catalytic subunit of PKA and 50 μM D-erythro-sphingosine (Sph), D-erythro-trimethyl-sphingosine (TMS), D-erythro-dihydro-sphingosine (DHS), phyto-sphingosine (PSph), D-erythro-sphingosine-1-phosphate (SIP), C2-ceramide (C2-Cer), sphingomyelin (SM), spermine (Sper) or linoleic acid (LA), all delivered in 0.1% ethanol. Phosphorylated 14-3-3ζ was detected by autoradiography.
Substrate 14-3-3 (either 0.5 μg of purified recombinant 14-3-3, a […] of fractions from gel filtration or immunoprecipitates from 14-3-3ζ-Myc transfected COS cells) were added to reaction mixture comprising 0.2 Units of the PKA catalytic subunit, in the presences or absence of sphingolipid (delivered in 0.1% v/v ethanol) in PICA reaction buffer (20 mM MOPS, pH 7.4, 20 mM β-glycerol phosphate, 4 mM EGTA, 1 mM Na3VO4, 60 mM MgCl2, 1 mM DTT, 500 μM ATP, 2.4 μCi [^32P]γ-ATP). Reactions were incubated at 37° C. for 15 minutes. After incubation, reactions were separated on 12.5% SDS-PAGE, coomassie stained and 14-3-3 phosphorylation analysed by autoradiography.
In the case of `CCCCCCCCCCCCC/C=C/[C@@H](O)[C@H](CO)NC(C)=O` [ceramide, C2-ceramide], the “phosphorylation of 14-3-3ζ on Ser58 by PKA catalytic subunit” value (“phosphorylation of 14-3-3ζ on Ser58” for short) is “did not support the phosphorylation”.

On to `CCCCCCCCCCCCCCC[C@@H](O)[C@@H](N)CO` [dihydro-sphingosine, D-erythro-dihydro-sphingosine], for which the “phosphorylation of 14-3-3ζ on Ser58” value is reported as “allowed phosphorylation”.

On to `CCCCC/C=C\C/C=C\CCCCCCCC(=O)O` [linoleic acid], for which the “phosphorylation of 14-3-3ζ on Ser58” value is reported as “did not support the phosphorylation”.

`CCCCCCCCCCCCCC[C@@H](O)[C@@H](O)[C@@H](N)CO` [phyto-sphingosine]: the “phosphorylation of 14-3-3ζ on Ser58” value was “allowed phosphorylation”.

Regarding `NCCCNCCCCNCCCN` [spermide, spermine], the “phosphorylation of 14-3-3ζ on Ser58” value is “did not support the phosphorylation”.

As to `CCCCCCCCCCCCC/C=C/[C@@H](O)[C@H](COP(=O)([O-])OCC[N+](C)(C)C)NC(=O)CCCCCCCCCCCCCCCCC` [sphingomyelin], the “phosphorylation of 14-3-3ζ on Ser58” value is recorded as “did not support the phosphorylation”.

Consider `CCCCCCCCCCCCC/C=C/[C@@H](O)[C@@H](N)COP(=O)(O)O` [sphingosine-1-phosphate, D-erythro-sphingosine-1-phosphate], for which the “phosphorylation of 14-3-3ζ on Ser58” value is “did not support the phosphorylation”.

For `CCCCCCCCCCCCC/C=C/[C@@H](O)[C@H](CO)[N+](C)(C)C` [trimethyl-sphingosine, D-erythro-trimethyl-sphingosine], the “phosphorylation of 14-3-3ζ on Ser58” value is listed as “allowed phosphorylation”.

Another test deals with T2, PKCδCat-HA (Homo sapiens, UniProt Q05655).
T2 construct: recreated exactly the N-terminus of the caspase-3 cleaved protein; additional initiator methionine (N); expressed in transfected cells; host or cells: COS cells, anti-HA immunoprecipitate
T2 sequence (Q05655 330-676 limits assumed): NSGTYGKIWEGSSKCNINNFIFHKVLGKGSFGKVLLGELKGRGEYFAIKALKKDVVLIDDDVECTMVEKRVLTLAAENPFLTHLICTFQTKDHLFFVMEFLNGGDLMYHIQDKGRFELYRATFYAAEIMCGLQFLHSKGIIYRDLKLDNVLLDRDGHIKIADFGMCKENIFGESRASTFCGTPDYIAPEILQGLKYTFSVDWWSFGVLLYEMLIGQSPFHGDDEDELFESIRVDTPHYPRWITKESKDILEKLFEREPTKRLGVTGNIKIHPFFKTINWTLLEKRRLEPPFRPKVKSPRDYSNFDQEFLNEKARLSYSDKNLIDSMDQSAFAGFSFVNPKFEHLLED
As to the kind of experiment: PKC kinase activity assay with Ser25 peptide substrate. The test is classed as biochemical. Conditions: 10 μM GF109203X. Here is the method:
FIG. 5 is an image depicting that DMS is required for phosphorylation of 14-3-3ζ by PKCδCat but not for activation of the kinase. COS cells were transfected with either an empty expression construct (Mock) or one encoding a HA-tagged truncated form of PKCδ corresponding to the caspase-3 cleaved protein (PKCδCat-HA). 20 hours after transfection the cells were lysed and PKCδCat-HA was immunoprecipitated using an anti-HA antibody. (A) PKC assays were carried out on the immunoprecipitates from mock (open bars) and PKCδCat-HA (shaded bars) expressing cells using Ser25 peptide as substrate with [^32P]γ-ATP in the presence or absence of 100 μM DMS (delivered in 0.1% ethanol) or 10 μM of GF109203X (GFX), the PKC inhibitor. The values represent means±S.E. of triplicate determinations. (B) PKCδCat-HA immunoprecipitates were incubated with recombinant 14-3-3ζ and [^32P]γ-ATP in the presence or absence of DMS or GF109203X (GFX). Phosphorylated 14-3-3 was detected by autoradiography after separation of SDS-PAGE (upper panel). The gel was also coomassie stained to show equal loading of 14-3-3 protein (lower panel). […]
Equal amounts of PKCδCat-HA immunoprecipitate were used to assay for PKC kinase activity, or to phosphorylate recombinant 14-3-3. […] Following incubation, reactions were separated on 12.5% SDS-PAGE, coomassie stained and 14-3-3 phosphorylation analysed by autoradiography.
In the case of `CN(C)CCCn1cc(C2=C(c3c[nH]c4ccccc34)C(=O)NC2=O)c2ccccc21` [GF109203X], the “effect on PKCδCat kinase activity” value is recorded as “completely inhibited”.

The test system of another test is Jurkat cells. As to the kind of experiment: Jurkat cell apoptosis (TMRE staining, NucView caspase activity). The note with it: TMAs, 16 hours incubation. The test is classed as cell-based. From the text: (A) Immunoblotting of lysates from either parental Jurkat cells (Jurkat) or cells transduced with lentivirus encoding either wild type (Wt) or S58A 14-3-3ζ-Myc with either an anti-14-3-3ζ specific antibody (upper panel) or an anti-pan 14-3-3 antibody (middle panel) to compare the expression level of transduced protein. Myc immunoprecipitates were also immunoblotted with an anti-phospho 14-3-3 binding site antibody (lower panel) to detect proteins associated with 14-3-3ζ-Myc. Endogenous 14-3-3 is indicated by an open arrow and exogenous 14-3-3ζ-Myc with a closed arrow. (B) Lysates from either wild type (Wt) or S58A 14-3-3ζ-Myc expressing Jutkat cells were subjected to in vitro PKA phosphorylation in the presence (+) or absence (−) of […] and the samples immunoblotted after SDS-PAGE separation With either anti-Myc antibody (upper panel), anti-14-3-3ζ antibody (middle panel) or anti-phospho Ser58 14-3-3ζ antibody (lower panel). (C) Serum-starved Jurkat cells were treated with 2 μM FTY720 for 4 h prior to staining with TMRE and NucView™. Forward- versus side-scatter plots (FS versus SS) show the viable cell populations for FTY720 and EtOH (vehicle) treated cells which are analysed in the lower histograms for caspase activity (NucView™) versus ΔΨM (TMRE). (D and E) Jurkat cell lines expressing either wild type or S58A 14-3-3ζ-Myc by lentiviral transduction were serum-starved for 2 h and treated with either 0.1% ethanol vehicle alone (EtOH), 2 μM dimethyl-sphingosine (DMS), or 2 μM FTY720. Cells were analysed by TMRE staining at 4 h (D) or at the time points indicated (E). (D) Representative analyses of TMRE staining with forward- versus side-scatter plots inset to show the similarity in cell populations. (E) Graphical representation of TMRE analysis over time with open symbols representing vehicle (0.1% EtOH) treated cells and closed symbols representing FTY720 treated cells. […]
FIG. 11. […] Effect of TMAs on Jurkat cells after 16 hours incubation assessed by ΔΨM (TMRE) and caspase 3 activity (NucView™) analysis. […] Forward-side-scatter histograms showing cell viability are inset and caspase 3 activity as assessed by NucView™ analysis of viable cells shown. E. Examples of TMA-derivatives of FTY720 that will be analysed for effects on 14-3-3 dimer stability and apoptosis.
Having confirmed appropriate expression and behaviour of Myc-tagged wild type and S58A 14-3-3ζ in the Jurkat lines, these cells were utilised in functional studies to determine the effect of S58A 14-3-3ζ expression on cell survival in response to sphingosine analogues. […] Intriguingly, Jurkat cells expressing S58A 14-3-3ζ-Myc consistently underwent commitment to apoptosis (as detected by the loss of TMRE staining) more slowly than those expressing wild type 14-3-3ζ-Myc (FIG. 8D).
In the case of `CCCCCCCCCCCCCCCC[N+](C)(C)C.[Br-]` [CTAB], the “apoptosis of Jurkat cells (ΔΨM by TMRE, caspase 3 by NucView)” value is reported as “apoptosis induced by CTAB”.

For the origin of these results see patent publication US20130231305A1, “Method of Modulating Protein 14-3-3 Functionality By Facilitating or Inhibiting Phosphorylation” (Medvet Science Pty. Ltd., priority 2010, published 2013).
